Reference: PMC4262413, “Importance of Tryptophan in Transforming an Amphipathic Peptide into a Pseudomonas aeruginosa-Targeted Antimicrobial Peptide” (PLoS ONE, 2014)
Converted amounts (≈) assume the structure as drawn. Like-named read-outs stand apart in the source and are kept apart here. Values belong to the compound of their own block, whether it stands above or below them. Residues, ends and D or L forms follow the SMILES beside them.

Experiments:
Assay in all cases: microbe, parasite or virus in culture
[1] = tested on: P. auruginosa LCCE (ceftazidime-resistant strain)
Experimental: (§1) Minimal inhibitory concentration (MIC) assays were performed as described previously. Briefly, after incubation overnight in Mueller-Hinton (MH) broth at 37°C, the bacteria were grown to exponential growth phase and diluted to approximately 1×10^5 CFU/ml. The peptides were dissolved in 0.2% bovine serum albumin (BSA) containing 0.01% (v/v) acetic acid, and they were then added to each well of a 96-well plates at a final concentration ranging from 0.25 to 128 µM. Each well contained a total volume of 100 µL (50 µL of inoculums and 50 µL of peptide-containing solution). The MICs were determined as the lowest concentration of peptide that prevented visible turbidity by visual inspection after incubation at 37°C for 16–18 h. Independent experiments were carried out at least three times. Uninoculated MH broth was used as a negative control and cultures without added peptides served as the positive control. Minimal bactericidal concentration (MBC) assay was performed following MIC assay. At the end of MIC assay 10 µL aliquots of the medium were taken from peptide-containing wells with no visible bacterial growth. These are plated on MH agar, incubated for 18 h to allow colony growth. The MBC was defined as the lowest peptide concentration resulting in no bacterial growth in the media. Each assay was performed at least three times.
(§2) The antimicrobial activity of the RI16 and mutant peptides against Gram-negative and Gram-positive bacteria were determined.

[2] = tested on: P. auruginosa LCCI (ciprofloxacin-resistant strain)
Experimental: as §1, §2

[3] = tested on: P. auruginosa LCGE (gentamincin-resistant strain)
Experimental: as §1, §2

S. aureus 29213 = assay type: cell-based, Staphylococcus aureus
Experimental: as §1

P. auruginosa 21630 = assay type: cell-based, Pseudomonas aeruginosa
Experimental: as §1

P. auruginosa 21625 = assay type: cell-based, Pseudomonas aeruginosa
Experimental: as §1

P. aeruginosa 27853 = assay type: cell-based, Pseudomonas aeruginosa
Experimental: as §1

P. auruginosa LC = assay type: cell-based, Pseudomonas aeruginosa
Experimental: as §1

P. auruginosa 10419 = assay type: cell-based, Pseudomonas aeruginosa
Experimental: as §1

S. epidermidis 12228 = assay type: cell-based, Staphyfococcus epidermidis
Experimental: as §1

E. coli 25922 = assay type: cell-based, Escherichia coli
Experimental: as §1

S. typhimurium 7731 = assay type: cell-based, Salmonella typhimurium
Experimental: as §1

MIC [1]: 256 µM (≈ 562 µg/mL) | MIC [2]: 256 µM (≈ 562 µg/mL) | MIC [3]: 256 µM (≈ 562 µg/mL) | MIC (S. aureus 29213; 29213): 256 µM (≈ 562 µg/mL) | MIC (P. auruginosa 21630): 256 µM (≈ 562 µg/mL) | MIC (P. auruginosa 21625): 256 µM (≈ 562 µg/mL) | MIC (P. aeruginosa 27853; 27853): 256 µM (≈ 562 µg/mL) | MIC (P. auruginosa LC): 64 µM (≈ 140 µg/mL) | MIC (P. auruginosa 10419): 256 µM (≈ 562 µg/mL) | MIC (S. epidermidis 12228; 12228): 32 µM (≈ 70.2 µg/mL) | MIC (E. coli 25922; 25922): 128 µM (≈ 281 µg/mL) | MIC (S. typhimurium 7731; 7731): 256 µM (≈ 562 µg/mL)
Compound: CC[C@H](C)[C@H](NC(=O)[C@H](CCCCN)NC(=O)[C@H](CCCCN)NC(=O)[C@H](CC(C)C)NC(=O)[C@H](CCCNC(=N)N)NC(=O)[C@H](CCCCN)NC(=O)[C@H](CCCNC(=N)N)NC(=O)[C@@H](NC(=O)[C@H](CCCCN)NC(=O)[C@H](CCCCN)NC(=O)[C@H](CCCNC(=N)N)NC(=O)[C@H](CC(C)C)NC(=O)[C@H](CCCNC(=N)N)NC(=O)[C@H](CCCNC(=N)N)NC(=O)[C@H](Cc1ccccc1)NC(=O)[C@@H](N)CCCNC(=N)N)[C@@H](C)CC)C(N)=O [T9I] (H-RFRRLRKKIRKRLKKI-NH2)

Compound: O=C(O)c1cn(C2CC2)c2cc(N3CCNCC3)c(F)cc2c1=O [ciprofloxacin, reference compound]
MIC ([2]; Pseudomonas aeruginosa): > 512 µM

Compound: NCC[C@H](O)C(=O)N[C@@H]1C[C@H](N)[C@@H](O[C@H]2O[C@H](CN)[C@@H](O)[C@H](O)[C@H]2O)[C@H](O)[C@H]1O[C@H]1O[C@H](CO)[C@@H](O)[C@H](N)[C@H]1O [Amikacin, reference compound]
MIC ([1]; Pseudomonas aeruginosa): 8 µM (≈ 4.68 µg/mL) | MIC ([2]; Pseudomonas aeruginosa): 8 µM (≈ 4.68 µg/mL) | MIC ([3]; Pseudomonas aeruginosa): > 1280 µM | MIC (S. aureus 29213; Staphylococcus aureus, S. aureus 29213, MH broth, ~1×10^5 CFU/ml, 37°C, 16–18 h, visible turbidity, at least three independent experiments): 1 µM (≈ 0.586 µg/mL) | MIC (P. auruginosa 21630; Pseudomonas aeruginosa, P. auruginosa 21630, MH broth, ~1×10^5 CFU/ml, 37°C, 16–18 h, visible turbidity, at least three independent experiments): 1 µM (≈ 0.586 µg/mL) | MIC (P. auruginosa 21625; Pseudomonas aeruginosa, P. auruginosa 21625, MH broth, ~1×10^5 CFU/ml, 37°C, 16–18 h, visible turbidity, at least three independent experiments): 16 µM (≈ 9.37 µg/mL) | MIC (P. aeruginosa 27853; Pseudomonas aeruginosa, P. auruginosa 27853, MH broth, ~1×10^5 CFU/ml, 37°C, 16–18 h, visible turbidity, at least three independent experiments): 1 µM (≈ 0.586 µg/mL) | MIC (P. auruginosa LC; Pseudomonas aeruginosa, P. auruginosa LC, MH broth, ~1×10^5 CFU/ml, 37°C, 16–18 h, visible turbidity, at least three independent experiments): 0.25 µM (≈ 0.146 µg/mL) | MIC (P. auruginosa 10419; Pseudomonas aeruginosa, P. auruginosa 10419, MH broth, ~1×10^5 CFU/ml, 37°C, 16–18 h, visible turbidity, at least three independent experiments): 2 µM (≈ 1.17 µg/mL) | MIC (S. epidermidis 12228; Staphylococcus epidermidis, 12228): 0.125 µM (≈ 0.0732 µg/mL) | MIC (E. coli 25922; Escherichia coli, 25922): 0.125 µM (≈ 0.0732 µg/mL) | MIC (S. typhimurium 7731; Salmonella enterica, S. typhimurium 7731, MH broth, ~1×10^5 CFU/ml, 37°C, 16–18 h, visible turbidity, at least three independent experiments): 0.5 µM (≈ 0.293 µg/mL)

Compound: CC[C@H](C)[C@H](NC(=O)[C@H](CCCCN)NC(=O)[C@H](CCCCN)NC(=O)[C@H](CC(C)C)NC(=O)[C@H](CCCNC(=N)N)NC(=O)[C@H](CCCCN)NC(=O)[C@H](CCCNC(=N)N)NC(=O)[C@H](CCCCN)NC(=O)[C@H](CCCCN)NC(=O)[C@H](CCCCN)NC(=O)[C@H](CCCNC(=N)N)NC(=O)[C@H](CC(C)C)NC(=O)[C@H](CCCNC(=N)N)NC(=O)[C@H](CCCNC(=N)N)NC(=O)[C@H](Cc1ccccc1)NC(=O)[C@@H](N)CCCNC(=N)N)C(N)=O [T9K] (H-RFRRLRKKKRKRLKKI-NH2)
MIC (S. aureus 29213; 29213): 128 µM (≈ 283 µg/mL) | MIC (P. auruginosa 21630): 256 µM (≈ 566 µg/mL) | MIC (P. auruginosa 21625): 256 µM (≈ 566 µg/mL) | MIC (P. aeruginosa 27853; 27853): 128 µM (≈ 283 µg/mL) | MIC (P. auruginosa LC): 256 µM (≈ 566 µg/mL) | MIC (P. auruginosa 10419): 256 µM (≈ 566 µg/mL) | MIC (S. epidermidis 12228; 12228): 128 µM (≈ 283 µg/mL) | MIC (E. coli 25922; 25922): 128 µM (≈ 283 µg/mL) | MIC (S. typhimurium 7731; 7731): 256 µM (≈ 566 µg/mL)

MIC [1]: 256 µM (≈ 571 µg/mL) | MIC [2]: 256 µM (≈ 571 µg/mL) | MIC [3]: 256 µM (≈ 571 µg/mL) | MIC (S. aureus 29213; 29213): 128 µM (≈ 285 µg/mL) | MIC (P. auruginosa 21630): 256 µM (≈ 571 µg/mL) | MIC (P. auruginosa 21625): 256 µM (≈ 571 µg/mL) | MIC (P. aeruginosa 27853; 27853): 256 µM (≈ 571 µg/mL) | MIC (P. auruginosa LC): 64 µM (≈ 143 µg/mL) | MIC (P. auruginosa 10419): 256 µM (≈ 571 µg/mL) | MIC (S. epidermidis 12228; 12228): 32 µM (≈ 71.3 µg/mL) | MIC (E. coli 25922; 25922): 64 µM (≈ 143 µg/mL) | MIC (S. typhimurium 7731; 7731): 128 µM (≈ 285 µg/mL)
Compound: CC[C@H](C)[C@H](NC(=O)[C@H](CCCCN)NC(=O)[C@H](CCCCN)NC(=O)[C@H](CC(C)C)NC(=O)[C@H](CCCNC(=N)N)NC(=O)[C@H](CCCCN)NC(=O)[C@H](CCCNC(=N)N)NC(=O)[C@H](Cc1ccccc1)NC(=O)[C@H](CCCCN)NC(=O)[C@H](CCCCN)NC(=O)[C@H](CCCNC(=N)N)NC(=O)[C@H](CC(C)C)NC(=O)[C@H](CCCNC(=N)N)NC(=O)[C@H](CCCNC(=N)N)NC(=O)[C@H](Cc1ccccc1)NC(=O)[C@@H](N)CCCNC(=N)N)C(N)=O [T9F] (H-RFRRLRKKFRKRLKKI-NH2)

Compound: CC(C)(O/N=C(\C(=O)N[C@@H]1C(=O)N2C(C(=O)[O-])=C(C[n+]3ccccc3)CS[C@H]12)c1csc(N)n1)C(=O)O [ceftazidime, reference compound]
MIC ([1]; Pseudomonas aeruginosa): > 512 µM

Compound: CC[C@H](C)[C@H](NC(=O)[C@H](CCCCN)NC(=O)[C@H](CCCCN)NC(=O)[C@H](CC(C)C)NC(=O)[C@H](CCCNC(=N)N)NC(=O)[C@H](CCCCN)NC(=O)[C@H](CCCNC(=N)N)NC(=O)[C@@H](NC(=O)[C@H](CCCCN)NC(=O)[C@H](CCCCN)NC(=O)[C@H](CCCNC(=N)N)NC(=O)[C@H](CC(C)C)NC(=O)[C@H](CCCNC(=N)N)NC(=O)[C@H](CCCNC(=N)N)NC(=O)[C@H](Cc1ccccc1)NC(=O)[C@@H](N)CCCNC(=N)N)[C@@H](C)O)C(N)=O [RI16] (H-RFRRLRKKTRKRLKKI-NH2)
MIC ([1]; P. auruginosa LCCE, ceftazidime-resistant strain, MH broth, ~1×10^5 CFU/ml, 37°C, 16–18 h, visible turbidity): 256 µM (≈ 559 µg/mL) | MIC ([2]; P. auruginosa LCCI, ciprofloxacin-resistant strain, MH broth, ~1×10^5 CFU/ml, 37°C, 16–18 h, visible turbidity): 256 µM (≈ 559 µg/mL) | MIC ([3]; P. auruginosa LCGE, gentamincin-resistant strain, MH broth, ~1×10^5 CFU/ml, 37°C, 16–18 h, visible turbidity): 256 µM (≈ 559 µg/mL) | MIC (S. aureus 29213; S. aureus 29213, MH broth, ~1×10^5 CFU/ml, 37°C, 16–18 h, visible turbidity, at least three independent experiments): 128 µM (≈ 279 µg/mL) | MIC (P. auruginosa 21630; P. auruginosa 21630, MH broth, ~1×10^5 CFU/ml, 37°C, 16–18 h, visible turbidity, at least three independent experiments): 256 µM (≈ 559 µg/mL) | MIC (P. auruginosa 21625; P. auruginosa 21625, MH broth, ~1×10^5 CFU/ml, 37°C, 16–18 h, visible turbidity, at least three independent experiments): 256 µM (≈ 559 µg/mL) | MIC (P. aeruginosa 27853; P. auruginosa 27853, MH broth, ~1×10^5 CFU/ml, 37°C, 16–18 h, visible turbidity, at least three independent experiments): 256 µM (≈ 559 µg/mL) | MIC (P. auruginosa LC; P. auruginosa LC, MH broth, ~1×10^5 CFU/ml, 37°C, 16–18 h, visible turbidity, at least three independent experiments): 32 µM (≈ 69.8 µg/mL) | MIC (P. auruginosa 10419; P. auruginosa 10419, MH broth, ~1×10^5 CFU/ml, 37°C, 16–18 h, visible turbidity, at least three independent experiments): 256 µM (≈ 559 µg/mL) | MIC (S. epidermidis 12228; S. epidermidis 12228, MH broth, ~1×10^5 CFU/ml, 37°C, 16–18 h, visible turbidity, at least three independent experiments): 32 µM (≈ 69.8 µg/mL) | MIC (E. coli 25922; E. coli 25922, MH broth, ~1×10^5 CFU/ml, 37°C, 16–18 h, visible turbidity, at least three independent experiments): 128 µM (≈ 279 µg/mL) | MIC (S. typhimurium 7731; S. typhimurium 7731, MH broth, ~1×10^5 CFU/ml, 37°C, 16–18 h, visible turbidity, at least three independent experiments): 128 µM (≈ 279 µg/mL)
